Converted amounts (≈) assume the structure as drawn.

In one assay the test system is Staphylococcus aureus. As to the kind of experiment: In vitro antibacterial activity against methicillin-resistant Staphylococcus aureus (MRSA) C6068. It is filed as functional.
In general, MIC refers to the lowest concentration found to suppress growth. A high value points to weaker potency. In turn, `CC(=O)NC[C@H]1CN(c2ccc(N3CCN(C(=O)c4cc(COC(N)=O)no4)CC3)c(F)c2)C(=O)O1` showed an MIC of 1 µg/mL (≈ 1.98 µM).

The compound `CC(=O)NC[C@H]1CN(c2ccc(N3CCN(Cc4cc(-c5ccc(F)cc5)no4)CC3)c(F)c2)C(=O)O1` gave an MIC of 4 µg/mL (≈ 7.82 µM).

Turning to `COc1ccc(-c2cc(CN3CCN(c4ccc(N5C[C@H](CNC(C)=O)OC5=O)cc4F)CC3)on2)cc1OC`, inhibition of growth (MIC) required 2 µg/mL (≈ 3.61 µM).

`COc1cccc(-c2cc(CN3CCN(c4ccc(N5C[C@H](CNC(C)=O)OC5=O)cc4F)CC3)on2)c1`: 4 µg/mL (≈ 7.64 µM) was the least that counted as inhibitory (MIC).

The next assay deals with Staphylococcus epidermidis. As to the kind of experiment: In vitro antibacterial activity against Staphylococcus epidermis (S.e.1) […]. It is filed as functional.
The compound `CC(=O)NC[C@H]1CN(c2ccc(N3CCN(C(=O)c4cc(COC(N)=O)no4)CC3)c(F)c2)C(=O)O1` came in with an MIC of 0.5 µg/mL (≈ 0.991 µM).

`CC(=O)NC[C@H]1CN(c2ccc(N3CCN(Cc4cc(-c5ccc(F)cc5)no4)CC3)c(F)c2)C(=O)O1` showed an MIC of 2 µg/mL (≈ 3.91 µM).

The compound `COc1ccc(-c2cc(CN3CCN(c4ccc(N5C[C@H](CNC(C)=O)OC5=O)cc4F)CC3)on2)cc1OC` displayed an MIC of 2 µg/mL (≈ 3.61 µM).

Compound `COc1cccc(-c2cc(CN3CCN(c4ccc(N5C[C@H](CNC(C)=O)OC5=O)cc4F)CC3)on2)c1` yielded an MIC of 4 µg/mL (≈ 7.64 µM).

A further assay has as its system Streptococcus pyogenes. As to the kind of experiment: In vitro antibacterial activity against Streptococcus pyogenes ATCC 8668 (S.p.1). It is filed as functional.
Turning to `CC(=O)NC[C@H]1CN(c2ccc(N3CCN(C(=O)c4cc(COC(N)=O)no4)CC3)c(F)c2)C(=O)O1`, the MIC is 0.5 µg/mL (≈ 0.991 µM).

`CC(=O)NC[C@H]1CN(c2ccc(N3CCN(Cc4cc(-c5ccc(F)cc5)no4)CC3)c(F)c2)C(=O)O1` registered an MIC of 2 µg/mL (≈ 3.91 µM).

`COc1ccc(-c2cc(CN3CCN(c4ccc(N5C[C@H](CNC(C)=O)OC5=O)cc4F)CC3)on2)cc1OC` gave a minimal inhibitory concentration (MIC) of 2 µg/mL (≈ 3.61 µM).

`COc1cccc(-c2cc(CN3CCN(c4ccc(N5C[C@H](CNC(C)=O)OC5=O)cc4F)CC3)on2)c1` gave an MIC of 4 µg/mL (≈ 7.64 µM).

The subject of a further assay is Enterococcus faecium. The assay can be described thus: In vitro antibacterial activity against vancomycin-resistant Enterococcus faecium C6487 (VRE). It is filed as functional.
`CC(=O)NC[C@H]1CN(c2ccc(N3CCN(C(=O)c4cc(COC(N)=O)no4)CC3)c(F)c2)C(=O)O1`: the MIC was found to be 1 µg/mL (≈ 1.98 µM).

In the case of `CC(=O)NC[C@H]1CN(c2ccc(N3CCN(Cc4cc(-c5ccc(F)cc5)no4)CC3)c(F)c2)C(=O)O1`, the MIC worked out at 4 µg/mL (≈ 7.82 µM). This MIC lies about 4-fold higher than the previous one.

`COc1ccc(-c2cc(CN3CCN(c4ccc(N5C[C@H](CNC(C)=O)OC5=O)cc4F)CC3)on2)cc1OC` yielded an MIC of 2 µg/mL (≈ 3.61 µM).

`COc1cccc(-c2cc(CN3CCN(c4ccc(N5C[C@H](CNC(C)=O)OC5=O)cc4F)CC3)on2)c1` came in with an MIC of 1 µg/mL (≈ 1.91 µM).

The test system of another assay is Staphylococcus epidermidis. As to the kind of experiment: In vitro antibacterial activity against Staphylococcus epidermis (S.e.2) C2235. It is filed as functional.
With `CC(=O)NC[C@H]1CN(c2ccc(N3CCN(C(=O)c4cc(COC(N)=O)no4)CC3)c(F)c2)C(=O)O1`, the MIC was found to be 0.5 µg/mL (≈ 0.991 µM).

`CC(=O)NC[C@H]1CN(c2ccc(N3CCN(Cc4cc(-c5ccc(F)cc5)no4)CC3)c(F)c2)C(=O)O1` showed an MIC of 4 µg/mL (≈ 7.82 µM). Against the preceding compound, the MIC is about 8-fold higher.

`COc1ccc(-c2cc(CN3CCN(c4ccc(N5C[C@H](CNC(C)=O)OC5=O)cc4F)CC3)on2)cc1OC` registered a minimum inhibitory concentration (MIC) of 4 µg/mL (≈ 7.23 µM).

`COc1cccc(-c2cc(CN3CCN(c4ccc(N5C[C@H](CNC(C)=O)OC5=O)cc4F)CC3)on2)c1`: inhibition of growth (MIC) required 4 µg/mL (≈ 7.64 µM).

In a further assay the test system is Staphylococcus aureus. The assay can be described thus: In vitro antibacterial activity against Staphylococcus aureus (S. a.) ATCC 29213. It is filed as functional.
In turn, `CC(=O)NC[C@H]1CN(c2ccc(N3CCN(C(=O)c4cc(COC(N)=O)no4)CC3)c(F)c2)C(=O)O1` gave an MIC of 2 µg/mL (≈ 3.96 µM).

Turning to `CC(=O)NC[C@H]1CN(c2ccc(N3CCN(Cc4cc(-c5ccc(F)cc5)no4)CC3)c(F)c2)C(=O)O1`, 8 µg/mL (≈ 15.6 µM) was the least that counted as inhibitory (MIC).

The compound `COc1ccc(-c2cc(CN3CCN(c4ccc(N5C[C@H](CNC(C)=O)OC5=O)cc4F)CC3)on2)cc1OC` returned an MIC of 4 µg/mL (≈ 7.23 µM).

Consider `COc1cccc(-c2cc(CN3CCN(c4ccc(N5C[C@H](CNC(C)=O)OC5=O)cc4F)CC3)on2)c1`, for which the MIC was determined as 4 µg/mL (≈ 7.64 µM).

A further assay relates to Enterococcus faecalis. The assay can be described thus: In vitro antibacterial activity against Enterococcus faecalis C6291 (E.f.1). It is filed as functional.
On to `CC(=O)NC[C@H]1CN(c2ccc(N3CCN(C(=O)c4cc(COC(N)=O)no4)CC3)c(F)c2)C(=O)O1`, for which the MIC was 1 µg/mL (≈ 1.98 µM).

`CC(=O)NC[C@H]1CN(c2ccc(N3CCN(Cc4cc(-c5ccc(F)cc5)no4)CC3)c(F)c2)C(=O)O1` displayed an MIC of 4 µg/mL (≈ 7.82 µM).

In turn, `COc1ccc(-c2cc(CN3CCN(c4ccc(N5C[C@H](CNC(C)=O)OC5=O)cc4F)CC3)on2)cc1OC` returned an MIC of 4 µg/mL (≈ 7.23 µM).

For the compound `COc1cccc(-c2cc(CN3CCN(c4ccc(N5C[C@H](CNC(C)=O)OC5=O)cc4F)CC3)on2)c1`, inhibition of growth (MIC) required 8 µg/mL (≈ 15.3 µM).

The test system of a further assay is Enterococcus faecium. The assay can be described thus: In vitro antibacterial activity against Enterococcus faecium C6301 (E.f.2). It is filed as functional.
The compound `CC(=O)NC[C@H]1CN(c2ccc(N3CCN(C(=O)c4cc(COC(N)=O)no4)CC3)c(F)c2)C(=O)O1` registered a minimum inhibitory concentration (MIC) of 1 µg/mL (≈ 1.98 µM).

In the case of `CC(=O)NC[C@H]1CN(c2ccc(N3CCN(Cc4cc(-c5ccc(F)cc5)no4)CC3)c(F)c2)C(=O)O1`, the MIC is 4 µg/mL (≈ 7.82 µM).

In turn, `COc1ccc(-c2cc(CN3CCN(c4ccc(N5C[C@H](CNC(C)=O)OC5=O)cc4F)CC3)on2)cc1OC` came in with an MIC of 4 µg/mL (≈ 7.23 µM).

As to `COc1cccc(-c2cc(CN3CCN(c4ccc(N5C[C@H](CNC(C)=O)OC5=O)cc4F)CC3)on2)c1`, 4 µg/mL (≈ 7.64 µM) was the least that counted as inhibitory (MIC).

The subject of the next assay is Staphylococcus aureus. The assay can be described thus: In vitro antibacterial activity against ciprofloxacin-resistant Staphylococcus aureus (CRSA) C6043. It is filed as functional.
`CC(=O)NC[C@H]1CN(c2ccc(N3CCN(C(=O)c4cc(COC(N)=O)no4)CC3)c(F)c2)C(=O)O1` came in with an MIC of 2 µg/mL (≈ 3.96 µM).

`CC(=O)NC[C@H]1CN(c2ccc(N3CCN(Cc4cc(-c5ccc(F)cc5)no4)CC3)c(F)c2)C(=O)O1` gave a minimal inhibitory concentration (MIC) of 8 µg/mL (≈ 15.6 µM).

In turn, `COc1ccc(-c2cc(CN3CCN(c4ccc(N5C[C@H](CNC(C)=O)OC5=O)cc4F)CC3)on2)cc1OC` gave an MIC of 4 µg/mL (≈ 7.23 µM).

As for `COc1cccc(-c2cc(CN3CCN(c4ccc(N5C[C@H](CNC(C)=O)OC5=O)cc4F)CC3)on2)c1`, the MIC was 2 µg/mL (≈ 3.82 µM).

The next assay relates to Staphylococcus aureus. The assay can be described thus: In vitro antibacterial activity against methicillin-susceptible Staphylococcus aureus (MSSA) C2214. It is filed as functional.
As for `CC(=O)NC[C@H]1CN(c2ccc(N3CCN(C(=O)c4cc(COC(N)=O)no4)CC3)c(F)c2)C(=O)O1`, the MIC turned out to be 2 µg/mL (≈ 3.96 µM).

As to `CC(=O)NC[C@H]1CN(c2ccc(N3CCN(Cc4cc(-c5ccc(F)cc5)no4)CC3)c(F)c2)C(=O)O1`, the MIC stood at 8 µg/mL (≈ 15.6 µM).

With `COc1ccc(-c2cc(CN3CCN(c4ccc(N5C[C@H](CNC(C)=O)OC5=O)cc4F)CC3)on2)cc1OC`, inhibition of growth (MIC) required 4 µg/mL (≈ 7.23 µM).

`COc1cccc(-c2cc(CN3CCN(c4ccc(N5C[C@H](CNC(C)=O)OC5=O)cc4F)CC3)on2)c1` had an MIC of 4 µg/mL (≈ 7.64 µM).

Another assay relates to Streptococcus pyogenes. As to the kind of experiment: In vitro antibacterial activity against Streptococcus pyogenes C6003 (S.p.2). It is filed as functional.
Turning to `CC(=O)NC[C@H]1CN(c2ccc(N3CCN(C(=O)c4cc(COC(N)=O)no4)CC3)c(F)c2)C(=O)O1`, the lowest concentration to inhibit growth (MIC) was 0.5 µg/mL (≈ 0.991 µM).

Regarding `CC(=O)NC[C@H]1CN(c2ccc(N3CCN(Cc4cc(-c5ccc(F)cc5)no4)CC3)c(F)c2)C(=O)O1`, the MIC was found to be 2 µg/mL (≈ 3.91 µM).

On to `COc1ccc(-c2cc(CN3CCN(c4ccc(N5C[C@H](CNC(C)=O)OC5=O)cc4F)CC3)on2)cc1OC`, for which the MIC was determined as 1 µg/mL (≈ 1.81 µM).

`COc1cccc(-c2cc(CN3CCN(c4ccc(N5C[C@H](CNC(C)=O)OC5=O)cc4F)CC3)on2)c1` gave an MIC of 1 µg/mL (≈ 1.91 µM).

For the origin of these results see ChEMBL document CHEMBL1131977, “Synthesis and in vitro activity of new oxazolidinone antibacterial agents having substituted isoxazoles” (1999).
